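Values below derive from 48-hour exposures of cells grown in 96-well plates, with endpoints linearly interpolated between the two concentrations bracketing the appropriate inhibition level. GI50 marks 50% less growth. TGI marks complete inhibition of growth.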
Key:
Assay in all cases: growth of human tumour cells (NCI), 48 h
U251 CNS = system: U251 CNS
NCI-H522 lung = system: NCI-H522 lung
UACC-257 melanoma = system: UACC-257 melanoma
HCC-2998 colon = system: HCC-2998 colon
UACC-62 melanoma = system: UACC-62 melanoma
HS 578T breast = system: HS 578T breast
NCI-H23 lung = system: NCI-H23 lung
NCI-H460 lung = system: NCI-H460 lung
HT29 colon = system: HT29 colon
HOP-62 NSCLC = system: HOP-62 NSCLC

SMILES | GI50 (U251 CNS) [µM] | TGI (U251 CNS) [µM] | GI50 (NCI-H522 lung) [µM] | TGI (NCI-H522 lung) [µM] | GI50 (UACC-257 melanoma) [µM] | TGI (UACC-257 melanoma) [µM] | GI50 (HCC-2998 colon) [µM] | TGI (HCC-2998 colon) [µM] | GI50 (UACC-62 melanoma) [µM] | TGI (UACC-62 melanoma) [µM] | GI50 (HS 578T breast) [µM] | TGI (HS 578T breast) [µM] | GI50 (NCI-H23 lung) [µM] | TGI (NCI-H23 lung) [µM] | GI50 (NCI-H460 lung) [µM] | TGI (NCI-H460 lung) [µM] | GI50 (HT29 colon) [µM] | TGI (HT29 colon) [µM] | GI50 (HOP-62 NSCLC) [µM] | TGI (HOP-62 NSCLC) [µM]
O=C1C(=O)c2c(nc3ncccn23)-c2ccccc21 | 0.316 | 1.16 | 0.232 | 0.753 | 0.175 | 0.339 | 0.408 | 0.935 | 0.177 | 0.326 | 0.244 | 0.631 | 0.193 | 0.432 | 0.227 | 0.526 | 0.838 | 2.29 | 0.296 | 1.05
CC(C)(C)c1nnc2n(c1=O)N=CC(c1ccc(Br)cc1)S2 (stereo not given) | 26 | 66.9 | 19.2 | 41.7 | 30.5 | 69.4 | 26.3 | 56.7 | 17.5 | 32.7 | 35.2 | 91.1 | 19.8 | 46.8 | 30.1 | > 100 | 43.8 | > 100 | 37.5 | > 100
Cc1[nH]nc(C(=O)Nc2n[nH]c3ccccc23)c1[N+](=O)[O-] | > 100 | > 100 | 39.4 | > 100 | > 100 | > 100 | > 100 | > 100 | > 93.7 | > 100 | > 68.7 | > 100 | > 66.9 | > 100 | > 85.1 | > 100 | > 100 | > 100 | > 100 | > 100
